From US12606561B2, “Substituted pyrazolo[1,5-a][1,3,5]triazines as CDK inhibitors” (QURIENT CO., LTD., priority 2018, dated 2026) come the findings set out here.

SMILES strings stand for the structures.

For one assay, the target named is T1, CDK1/Cyclin B (Homo sapiens, UniProt P06493).
T1 construct: purchased Invitrogen PR4768C
The experiment in a line: Enzymatic assay for CDK1 (LANCE Ultra kinase assay, FRET based). The assay is classed as biochemical. The note with it: ATP at Km; read-out: CDK1 enzymatic activity IC50. The procedure, abridged:
(§1)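 TR-FRET (LANCE Ultra) kinase assays with a ULight-labelled peptide substrate and a Europium-labelled anti-phospho antibody. ATP was set at its Km for each kinase. Inhibition was measured on purified CDK/cyclin complexes: CDK7/Cyclin H/MNAT1 and CDK1/Cyclin B.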

Another assay addresses T2, CDK2/Cyclin A (Homo sapiens, UniProt P24941).
T2 construct: purchased Invitrogen PV6290
Nature of the assay: Enzymatic assay for CDK2 (LANCE Ultra kinase assay, FRET based). Conditions: ATP at Km. The assay is classed as biochemical. The procedure, abridged: (§2)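 Compounds tested as 8 doses in 4-fold steps against CDK2/Cyclin A ([…]) or CDK5/p25 ([…]), with ATP at its Km and 68 nM ULight-MBP substrate. After 60 min at 23° C., EDTA plus Eu-labelled anti-phospho-MBP added; TR-FRET (615/665 nm) read after another 60 min.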

In another assay the test system is H460. Nature of the assay: Cellular H460 viability assay (CellTiter-Glo, 72 hours). Type of assay: cell-based. The note with it: Homo sapiens, NCI-H460; H460 cells. As to the method:
All cell lines were routinely tested for mycoplasma.
To effect of the CDK7 inhibitor to inhibit the growth of target cancer cells, viability assay were conducted a 72 hour time period. Briefly, the candidate cell line was plated in 96 well plate at the following density of cells respectively. 1×10^4 cells/well for MV4-11, 5×10^3 for H460 and OVCAR-3, and 1×10^3 for A2780. […] DMSO solvent without compound served as a control and final DMSO concentration lest than 0.1%. After 72 hours of incubation at 37° C., 5% CO2 incubator, cells were analyzed for the viability using the CellTiter-Glo Luminescent Cell Viability Assay (Promega, Cat #G7570). All viability assays were performed in duplicate and Luminescence was read using an Envision (Perkin Elmer, USA). Data was analyzed using XLfit software.

The target in another assay is T3, CDK5/p25 (Homo sapiens, UniProt Q00535).
T3 construct: purchased Invitrogen PR8543B
Nature of the assay: Enzymatic assay for CDK5 (LANCE Ultra kinase assay, FRET based). Type of assay: biochemical. The note with it: ATP at Km. The procedure, abridged:
as §2

The subject of the next assay is MV4-11. The experiment in a line: Cellular MV4-11 viability assay (CellTiter-Glo, 72 hours). The assay is classed as cell-based. Conditions: Homo sapiens; MV4-11 cells. The procedure, abridged: (§3)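 Cells in RPMI-1640 with 10% FBS were seeded (MV4-11 1×10^4, OVCAR-3 5×10^3, A2780 1×10^3 cells/well) and treated 24 h later with compound at 0.0015–10 uM, final DMSO under 0.1%. After 72 h at 37 °C, viability was read by CellTiter-Glo luminescence, in duplicate.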

In a further assay the test system is A2780. Nature of the assay: A2780 viability assay (CellTiter-Glo, 72 hours). The assay is classed as cell-based. Conditions: Homo sapiens; A2780 cells. The procedure, abridged: as §3
A further assay relates to OVCAR-3. The experiment in a line: OVCAR-3 viability assay (CellTiter-Glo, 72 hours). The assay is classed as cell-based. The note with it: Homo sapiens; OVCAR-3 cells. The procedure, abridged:
as §3

The target of another assay is T4, CDK7/Cyclin H/MNAT1 (Homo sapiens, UniProt P50613).
T4 construct: purchased Invitrogen PR6749B
The experiment in a line: Enzymatic assay for CDK7 (LANCE Ultra kinase assay, FRET based). Type of assay: biochemical. The note with it: for IC50: ATP at Km. The procedure, abridged: as §1

T1 sequence (P06493 whole entry): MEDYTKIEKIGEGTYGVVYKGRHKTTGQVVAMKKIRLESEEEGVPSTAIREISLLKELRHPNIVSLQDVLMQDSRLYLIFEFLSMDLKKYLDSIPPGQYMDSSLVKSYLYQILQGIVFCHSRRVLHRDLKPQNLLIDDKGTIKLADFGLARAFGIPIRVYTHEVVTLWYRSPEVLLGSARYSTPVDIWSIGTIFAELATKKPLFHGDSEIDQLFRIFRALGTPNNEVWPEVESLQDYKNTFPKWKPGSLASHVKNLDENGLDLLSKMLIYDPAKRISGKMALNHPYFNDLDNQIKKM
T1 sequence (P14635 whole entry partner): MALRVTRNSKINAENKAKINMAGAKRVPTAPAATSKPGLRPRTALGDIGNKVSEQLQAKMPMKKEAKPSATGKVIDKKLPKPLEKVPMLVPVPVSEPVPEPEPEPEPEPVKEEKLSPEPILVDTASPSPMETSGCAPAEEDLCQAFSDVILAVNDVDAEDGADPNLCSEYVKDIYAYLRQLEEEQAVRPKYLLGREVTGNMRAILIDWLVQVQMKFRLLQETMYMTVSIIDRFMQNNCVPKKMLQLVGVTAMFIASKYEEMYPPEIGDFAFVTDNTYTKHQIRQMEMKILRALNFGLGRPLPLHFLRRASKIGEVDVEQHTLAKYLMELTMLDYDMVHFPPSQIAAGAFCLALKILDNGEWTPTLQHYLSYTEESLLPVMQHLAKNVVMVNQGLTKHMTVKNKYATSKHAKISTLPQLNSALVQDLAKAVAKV
T3 sequence (Q00535 whole entry): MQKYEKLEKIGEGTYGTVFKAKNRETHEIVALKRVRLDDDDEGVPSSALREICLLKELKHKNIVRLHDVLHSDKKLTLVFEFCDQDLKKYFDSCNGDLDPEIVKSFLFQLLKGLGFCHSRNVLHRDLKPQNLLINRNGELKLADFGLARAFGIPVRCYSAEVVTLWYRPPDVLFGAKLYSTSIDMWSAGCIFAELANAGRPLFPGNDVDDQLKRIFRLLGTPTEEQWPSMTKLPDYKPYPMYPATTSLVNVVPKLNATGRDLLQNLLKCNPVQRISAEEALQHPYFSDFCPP
T3 sequence (Q15078 99-307 partner limits assumed): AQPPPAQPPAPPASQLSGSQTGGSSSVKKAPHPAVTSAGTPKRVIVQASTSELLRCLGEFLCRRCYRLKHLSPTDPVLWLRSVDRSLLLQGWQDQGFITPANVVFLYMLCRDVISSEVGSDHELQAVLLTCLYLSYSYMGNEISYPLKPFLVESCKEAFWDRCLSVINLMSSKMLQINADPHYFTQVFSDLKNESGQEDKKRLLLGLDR
T4 sequence (P50613 whole entry): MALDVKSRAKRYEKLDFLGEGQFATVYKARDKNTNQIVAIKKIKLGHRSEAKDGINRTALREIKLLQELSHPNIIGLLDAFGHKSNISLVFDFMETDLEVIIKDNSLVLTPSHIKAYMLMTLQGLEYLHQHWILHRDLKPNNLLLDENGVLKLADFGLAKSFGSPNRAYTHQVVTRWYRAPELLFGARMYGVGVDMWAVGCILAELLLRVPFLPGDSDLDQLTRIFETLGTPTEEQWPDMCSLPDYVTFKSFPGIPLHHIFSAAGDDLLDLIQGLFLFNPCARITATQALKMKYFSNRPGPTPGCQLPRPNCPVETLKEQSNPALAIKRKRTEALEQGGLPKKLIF
T4 sequence (P51946 whole entry partner): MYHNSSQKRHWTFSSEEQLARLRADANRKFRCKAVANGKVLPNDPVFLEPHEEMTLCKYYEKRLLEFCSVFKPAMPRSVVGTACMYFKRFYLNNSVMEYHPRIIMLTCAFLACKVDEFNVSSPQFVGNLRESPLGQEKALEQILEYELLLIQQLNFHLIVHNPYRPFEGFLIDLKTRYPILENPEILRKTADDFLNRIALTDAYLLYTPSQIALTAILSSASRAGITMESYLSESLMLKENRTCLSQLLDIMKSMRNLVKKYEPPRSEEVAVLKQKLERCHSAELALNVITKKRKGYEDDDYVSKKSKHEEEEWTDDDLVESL
T4 sequence (P51948 whole entry partner): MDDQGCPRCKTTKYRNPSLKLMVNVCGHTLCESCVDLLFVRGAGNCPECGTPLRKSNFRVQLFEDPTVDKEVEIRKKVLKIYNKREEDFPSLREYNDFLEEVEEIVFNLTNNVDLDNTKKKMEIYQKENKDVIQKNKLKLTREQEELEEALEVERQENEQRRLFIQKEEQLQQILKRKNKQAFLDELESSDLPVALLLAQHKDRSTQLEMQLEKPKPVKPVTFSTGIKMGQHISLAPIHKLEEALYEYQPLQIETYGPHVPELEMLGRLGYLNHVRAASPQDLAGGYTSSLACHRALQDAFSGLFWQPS

For the compound `CC(C)c1cnn2c(NCc3ccccc3-c3nccc4cc(NC(=O)/C=C/CN(C)C)ccc34)nc(NC[C@H]3CCNC[C@@H]3O)nc12` [Compound 26], the IC50 at CDK1/Cyclin B was above 1000 nM; against CDK2/Cyclin A, above 1000 nM; with H460, below 1000 nM; at CDK5/p25, above 1000 nM; in the assay on MV4-11 it was below 1000 nM; in the assay on A2780, below 1000 nM. For the same compound, the figures for the 50% inhibitory concentration (IC50) in the assay with OVCAR-3 and against CDK7/Cyclin H/MNAT1 were below 1000 nM and below 100 nM, respectively. Also, on CDK7/Cyclin H/MNAT1, the “CDK1/CDK7: Selectivity of CDK7 inhibition over CDK1 inhibition” value is “A (A indicates [fold] > 500)”. Moreover, at CDK7/Cyclin H/MNAT1, the “CDK2/CDK7: Selectivity of CDK7 inhibition over CDK2 inhibition” value is “A (A indicates [fold] > 500)”. On CDK7/Cyclin H/MNAT1, the “CDK5/CDK7: Selectivity of CDK7 inhibition over CDK5 inhibition” value is “A (A indicates [fold] > 500)”.
With `CC(C)c1cnn2c(NCc3ccccc3-c3cc4c(NC(=O)/C=C/CN(C)C)cccc4[nH]3)nc(N3CCC(N)CC3)nc12` [Compound 3], the concentration for half-maximal inhibition (IC50) on CDK1/Cyclin B was 100 to 1000 nM; against CDK2/Cyclin A, 100 to 1000 nM; in the assay on H460, below 1000 nM; at CDK5/p25, below 100 nM; in the assay with MV4-11, below 1000 nM; in the assay on A2780, below 1000 nM. The IC50 in the assay on OVCAR-3 is below 1000 nM; against CDK7/Cyclin H/MNAT1, below 100 nM. In addition, the “CDK1/CDK7: Selectivity of CDK7 inhibition over CDK1 inhibition” value at CDK7/Cyclin H/MNAT1 was “C (C indicates [fold] ≤ 50)”. Moreover, the “CDK2/CDK7: Selectivity of CDK7 inhibition over CDK2 inhibition” value at CDK7/Cyclin H/MNAT1 was “C (C indicates [fold] ≤ 50)”. In addition, the “CDK5/CDK7: Selectivity of CDK7 inhibition over CDK5 inhibition” value at CDK7/Cyclin H/MNAT1 was “C (C indicates [fold] ≤ 50)”.
For the compound `CC(C)c1cnn2c(NCc3ccccc3-c3cc4cccc(NC(=O)/C=C/CN(C)C)c4[nH]3)nc(N3CCC(N)CC3)nc12` [Compound 25], the half-maximal inhibitory concentration (IC50) at CDK1/Cyclin B was 100 to 1000 nM; on CDK2/Cyclin A, 100 to 1000 nM; in the assay with H460, below 1000 nM; on CDK5/p25 it was below 100 nM; with MV4-11, below 1000 nM; in the assay on A2780 it was below 1000 nM. Moreover, the half-maximal inhibitory concentration (IC50) was below 1000 nM in the assay on OVCAR-3 and below 100 nM on CDK7/Cyclin H/MNAT1. The “CDK1/CDK7: Selectivity of CDK7 inhibition over CDK1 inhibition” value at CDK7/Cyclin H/MNAT1 is “B (B indicates 50 < [fold] ≤ 500)”. Also, the “CDK2/CDK7: Selectivity of CDK7 inhibition over CDK2 inhibition” value on CDK7/Cyclin H/MNAT1 is “C (C indicates [fold] ≤ 50)”. Moreover, the “CDK5/CDK7: Selectivity of CDK7 inhibition over CDK5 inhibition” value on CDK7/Cyclin H/MNAT1 was “C (C indicates [fold] ≤ 50)”.
Consider `CC(C)c1cnn2c(NCc3ccccc3-c3nccc4cc(NC(=O)/C=C/CN(C)C)ccc34)nc(N[C@H]3CC[C@H](O)CC3)nc12` [Compound 27], for which the IC50 at CDK1/Cyclin B is above 1000 nM; against CDK2/Cyclin A, above 1000 nM; in the assay with H460, below 1000 nM; against CDK5/p25, above 1000 nM; in the assay on MV4-11 it was below 1000 nM; in the assay with A2780, below 1000 nM. For the same compound, the half-inhibitory concentration (IC50) with OVCAR-3 was below 1000 nM; on CDK7/Cyclin H/MNAT1 it was below 100 nM. For the same compound, the “CDK1/CDK7: Selectivity of CDK7 inhibition over CDK1 inhibition” value at CDK7/Cyclin H/MNAT1 was “B (B indicates 50 < [fold] ≤ 500)”. Also, the “CDK2/CDK7: Selectivity of CDK7 inhibition over CDK2 inhibition” value at CDK7/Cyclin H/MNAT1 was “B (B indicates 50 < [fold] ≤ 500)”. Also, at CDK7/Cyclin H/MNAT1, the “CDK5/CDK7: Selectivity of CDK7 inhibition over CDK5 inhibition” value was “B (B indicates 50 < [fold] ≤ 500)”.
With `CC(C)c1cnn2c(NCc3ccccc3-c3ccc4cccc(NC(=O)/C=C/CN(C)C)c4n3)nc(N3CCC(N)CC3)nc12` [Compound 20], the IC50 is above 1000 nM at CDK1/Cyclin B; above 1000 nM against CDK2/Cyclin A; below 1000 nM with H460; 100 to 1000 nM against CDK5/p25; below 1000 nM in the assay on MV4-11; below 1000 nM in the assay on A2780. The half-inhibitory concentration (IC50) in the assay on OVCAR-3 was below 1000 nM; against CDK7/Cyclin H/MNAT1 it was below 100 nM. Moreover, on CDK7/Cyclin H/MNAT1, the “CDK1/CDK7: Selectivity of CDK7 inhibition over CDK1 inhibition” value is “B (B indicates 50 < [fold] ≤ 500)”. The “CDK2/CDK7: Selectivity of CDK7 inhibition over CDK2 inhibition” value on CDK7/Cyclin H/MNAT1 was “A (A indicates [fold] > 500)”. On CDK7/Cyclin H/MNAT1, the “CDK5/CDK7: Selectivity of CDK7 inhibition over CDK5 inhibition” value is “B (B indicates 50 < [fold] ≤ 500)”.
